The record followed here is patent EP2871962B1, “WOOD PROTECTION AGAINST MICROORGANISMS BY LACCASE-CATALYSED IODINATION” (EMPA Eidgenössische Materialprüfungs- und Forschungsanstalt, priority 2012, dated 2013).

In experiment [1] the test system is Aureobasidium pullulans. Put plainly: Growth inhibition by iodinated and non-iodinated phenols on agar plates (Example 2). Conditions: ± standard deviation, n = 6; for inhibition at 1000 µM: 1mM in 2% malt extract agar; for inhibition at 2000 µM: 2mM in 2% malt extract agar; for inhibition at 4000 µM: 4mM in 2% malt extract agar. Type of experiment: cell-based. The procedure:
(§1) Vanillin and ethyl-vanillin (4 mM) were incubated in the presence of commercial T. versicolor laccase (250 mg per L), 0.1 mM mediator ABTS and 50 mM potassium iodide in citrate-phosphate buffer (pH 5.0) for 20 h at room temperature. The reaction vessels with a liquid volume of 1 L were aerated with pressurized air through a frit. Reaction products were extracted by addition of 250 mL ethyl-acetate, thorough mixing and subsequent separation of the organic phase. The solvent was removed in a rotary evaporator at 50°C under vacuum until solid products were obtained. Reaction products were re-dissolved in ethyl-acetate and analysed by HPLC-MS.
(§2) For biotests, iodo-vanillin and iodo-ethyl-vanillin were dissolved to a concentration of 0.4 M in DMSO (stock solution). The non-iodinated reference compounds (educts) vanillin and ethyl-vanillin were dissolved to a concentration of 0.1 M in ethanol. All compounds were evaluated on agar plates (Ø 90mm). The compounds were added to 2% malt extract agar after autoclaving to final concentrations of 1, 2 and 4 mM, respectively. Control plates contained similar amounts of DMSO or ethanol as added with stock solutions. Supplemented agar plates were inoculated in the centre with a mycelium agar disc (9-mm diameter) taken from the submargins of 14-day old cultures of the basidiomycetes Oligoporus placenta, Gloephyllum trabeum, Coniophora puteana, Trametes versicolor and the ascomycete Aureobasidium pullulans. Plates were incubated at 22 °C and 70% RH. The radial fungal growth was estimated by measuring the colony diameter, and the growth inhibition was expressed as percentage reduction of this value after similar incubation times. Growth inhibition data of 6 replicate plates per compound/control were arcsine transformed prior to statistical analysis (ANOVA) and back transformed to numerical values for visualization. Means were separated using Tukey's HSD (honestly significant difference) test at significance levels with P values of <0.05 and <0.001. The statistical package used for all analyses was SPSS (version 17.0; SPSS Inc., Chicago, IL).

Experiment [2] relates to Oligoporus placenta. The description is as above. Type of experiment: cell-based. The following applies: Rhodonia placenta, ± standard deviation, n = 6, read-out: Growth inhibition, O. placenta; for inhibition at 1000 µM: 1mM in 2% malt extract agar; for inhibition at 2000 µM: 2mM in 2% malt extract agar; for inhibition at 4000 µM: 4mM in 2% malt extract agar. The procedure: as §1, §2

In experiment [3] the test system is Coniophora puteana. Described as above. Type of experiment: cell-based. The following applies: ± standard deviation, n = 6, read-out: Growth inhibition, C. puteana; for inhibition at 1000 µM: 1mM in 2% malt extract agar; for inhibition at 2000 µM: 2mM in 2% malt extract agar; for inhibition at 4000 µM: 4mM in 2% malt extract agar. The protocol: as §1, §2
Experiment [4] has as its system Trametes versicolor. The experiment is described as above. Type of experiment: cell-based. Conditions: ± standard deviation, n = 6, read-out: Growth inhibition, T. versicolor; for inhibition at 1000 µM: 1mM in 2% malt extract agar; for inhibition at 2000 µM: 2mM in 2% malt extract agar; for inhibition at 4000 µM: 4mM in 2% malt extract agar. The procedure:
as §1, §2

Experiment [5] concerns Gloephyllum trabeum. The description is as above. Conditions: Gloeophyllum trabeum, ± standard deviation, n = 6, read-out: Growth inhibition, G. trabeum; for inhibition at 1000 µM: 1mM in 2% malt extract agar; for inhibition at 2000 µM: 2mM in 2% malt extract agar; for inhibition at 4000 µM: 4mM in 2% malt extract agar. Type of experiment: cell-based. The protocol:
as §1, §2

The test system of experiment [6] is Trametes versicolor laccase. Put plainly: Laccase-catalysed oxidation of iodide to tri-iodide with redox mediators (absorbance at 353 nm). Type of experiment: biochemical.
Experimental: The enzyme used in the study was a commercial laccase from Trametes versicolor (Sigma-Aldrich). […] Reactions were performed in transparent polymethyl methacrylate (PMMA) cuvettes or polystyrene micro titer plates. Change in absorbance (ΔA) at 420nm was recorded in intervals of 10sec for 3min. Samples with very high activities were diluted 10-fold with ddH2O before using them in the assay. Volumetric activities were calculated using an extinction coefficient (ε) of 0.036µmol^-1 1 cm^-1 (36000mol^-1 1 cm^-1) (22), according to the following equation (Δt in min, V in µl):
The laccase-catalysed oxidation of iodide (I^-) to iodine (I2) was monitored by the formation of triiodide (I3^-) at 353nm (laccase activity 0.12U ml^-1, 50mM iodide, citrate buffer pH 4.5, extinction coefficient of I3^- ε = 28000 mol^-1 1 cm^-1) (24, 17). […] Well-known synthetic (ABTS) and natural (acetosyringone [ACS], 4-hydroxybenzoic acid [HBA]) laccase mediators were tested (25, 26). […] The pH optima for mediator-enhanced oxidation of iodide were determined using the McIlvain citrate-phoshate buffer series.
In experiment [7] the test system is A. pullulans, C. picea, C. herbarum and D. pinicola. Put plainly: Biotests 2: blue stain test of treated wood (EN 152-2, modified). Type of experiment: cell-based. The following applies: 6 weeks of incubation, mean of stain categories 0-5 ±SE, n = 6, Mediator = ACS (50 µM). The procedure:
Wood specimens (batch 1: 10 x 10 x 5 mm, length x width x height used in the biotests 1 and batch 2: 20 x 15 x 10 mm used in the biotests 2), free of defects, were extracted longitudinally from boards of Norway spruce trees grown in Switzerland, in order to minimize the influence of natural variability. All specimens were conditioned at 23C°(±1°C) and 50% (±5%) relative humidity (RH) until they reached an equilibrium moisture content of approximately 8-10%. Prior to the wood treatment the specimens were sterilized by autoclaving for 20min at 121°C(±1°C).
The enzymatic wood iodination and polymerisation were carried out by dipping three wood specimens of batch 1 in 30ml or 12 wood specimens of batch 2 in 200ml reaction solution (pH 4-6) containing one of the phenolic compounds (4mM), or potassium iodide (1 or 50mM) in the presence of laccase ([…]) for 18h at room temperature. Furthermore, to test the suitability of HBA (5mM) as mediator some additional experiments were performed. The chemical preservative VP 7/ 260a containing IPBC and propiconazole as active agents was used as a benchmark with a final concentration of 5% (v/v). The wood specimens were treated and used in the biological tests, with the following modifications: • Control = Wood treated with buffer • L = Wood treated with laccase alone • L-M = Wood treated with laccase and mediator • Iso = Wood treated with isoeugenol • Iso-L = Wood treated with isoeugenol and laccase • Iso-L-M = Wood treated with isoeugenol, laccase and mediator • Thy = Wood treated with thymol • Thy-L = Wood treated with thymol and laccase • Thy-L-M = Wood treated with thymol and laccase and mediator • Ix = Wood treated with 1 or 50mM iodide (x = concentration of iodide) • Ix-L = Wood treated with 1 or 50mM iodide and laccase • Ix-L-M = Wood treated with 1 or 50mM iodide, laccase and mediator • VP7 = Wood treated with VP 7/ 260a (IPBC and propiconazole)
After the reaction all wood specimens of batch 1 had undergone a leaching procedure comprising five cycles of incubation in ddH2O (liquid volume min. 10 times the specimen volume, 100rpm, room temperature, 24h) and water exchange. Half of the wood specimens of batch 2 were exposed to leaching for two weeks including nine steps of water changing according to EN 84 (29), the other half was used without leaching in biotests.
The resistance of the treated wood against blue stain and wood decay fungi was determined in biotests 2 according to the European standards EN 152-2 (30) and EN 113 (31) with slight modifications. The EN 152 is a classical test for blue staining, originally intended to determine the effectiveness of a preservative treatment against blue stain in service. The treated wood samples were dipped into a spore suspension of A. pullulans, C. picea, C. herbarum and D. pinicola (cfu: > 10^5) and placed horizontally in a Kolle flask containing vermiculite (18g) which was inoculated additionally with 40ml of the spore suspension. The incubated specimens were stored in an incubation room at 22°C and 70% RH (6 weeks). After incubation the surface was evaluated by classifying the percentage of blue-stain discolouration from 0 to 5 according to Thwaites et al. (32) (Table 1). Table 1: Determination of the blue stain discoloration

For `COc1cc(C=O)cc(I)c1O` [5-Iodo-Vanillin (commercial), 4-hydroxy-3-iodo-5-methoxybenzaldehyde], the inhibition at 1000 µM in experiment [1] stood at 1.36 ± 1.4%; in experiment [2] it was 17.7%; in experiment [3] it was 66.4%; in experiment [4] it was 78.5%; in experiment [5] it was 40.9%. Further, the inhibition at 2000 µM was 7.31% in experiment [1]; 22.5% in experiment [2]; 65.1% in experiment [3]; 82% in experiment [4]; 37.3% in experiment [5]. For the same compound, the inhibition at 4000 µM in experiment [1] was determined as 1.51 ± 2.4%; in experiment [2], 9.06%; in experiment [3] it was 56.5%; in experiment [4], 82.9%; in experiment [5] it was 38.1%.
As for `CCn1c(=NN=c2sc3cc(S(=O)(=O)O)ccc3n2CC)sc2cc(S(=O)(=O)O)ccc21` [ABTS, 2,2-azino-bis(3-ethylbenzothiazoline-6-sulfonic acid)], the laccase-catalysed tri-iodide formation in experiment [6] (pH 4, 10µM mediator) stood at 0.13 µM/min/mg.
Consider `COc1cc(C(C)=O)cc(OC)c1O` [ACS, acetosyringone], for which the laccase-catalysed tri-iodide formation in experiment [6] (pH 5, 50µM mediator) came to 0.89 µM/min/mg.
Consider `CCOc1cc(C=O)ccc1O` [Ethylvanillin], for which the inhibition at 1000 µM in experiment [2] was 0%; in experiment [3], 0%; in experiment [4], 10.2%; in experiment [5] it was 15.8%. Also, the inhibition at 2000 µM was 0% in experiment [2], 21.1 ± 18.3% in experiment [3], 29.9% in experiment [4] and 23.9% in experiment [5]. Also, the inhibition at 4000 µM in experiment [2] is 0%; in experiment [3] it was 31.2 ± 21.2%; in experiment [4], 11.4%.
As to `O=C(O)c1ccc(O)cc1` [HBA, 4-hydroxybenzoic acid], the function as mediator entry in experiment [6] (data not shown) is recorded as “not to have a function as mediator”.
In the case of `[I-].[K+]` [I1, potassium iodide], in experiment [7] (wood batch 2, leached (EN 84)), the “Blue stain discoloration, Leached” value came to 3.7 ±0.4. For the same compound, the “Blue stain discoloration, Non-leached” value in experiment [7] (wood batch 2, non-leached) is on record as 2.2 ±0.4.
As for `COc1cc(C=O)ccc1O` [Vanillin, 4-hydroxy-3-methoxybenzaldehyde], the inhibition at 1000 µM in experiment [1] was 0%; in experiment [2] it was 0%; in experiment [3], 18.2 ± 31.6%; in experiment [4] it was 6.59 ± 4.2%; in experiment [5] it was 2.19 ± 1%. For the same compound, the inhibition at 2000 µM in experiment [1] is 8.52 ± 14.8%; in experiment [2], 11.8 ± 8.5%; in experiment [3], 24.2%; in experiment [4], 18.8%; in experiment [5], 13.4%. Also, the inhibition at 4000 µM was found to be 17.9 ± 11.5% in experiment [1]; 55.3% in experiment [2]; 61.5% in experiment [3]; 42% in experiment [4]; 51.4% in experiment [5].

As usually defined, the inhibition is the relative decrease from the control value, in per cent.
